Results reported in article PMC10779950, “Binding Free Energy Calculation Based on the Fragment Molecular Orbital Method and Its Application in Designing Novel SHP-2 Allosteric Inhibitors” (International Journal of Molecular Sciences, 2024).
Like-named read-outs stand apart in the source and are kept apart here.

Assays:
[1] = tested on: Eg5; details: experimental binding free energy, ref Schrödinger FEP+ benchmark; cited from earlier work
[2] = target: T1, SHP2^WT (1–593) (Homo sapiens, UniProt Q06124); assay: SHP-2 prompt fluorescence phosphatase assay (DiFMUP), SHP2^WT; assay type: biochemical; design: ΔG experiment: unit not given here; details: for pIC50: from experimental IC50; for ΔG experiment: experimental binding free energy converted from IC50; for ΔGexp: converted from IC50 with ΔGexp ≈ kBTlog IC50
T1 construct: made in house; host or cells: E. coli BL21 Star (DE3), pET30 vector
T1 sequence (Q06124 1-593): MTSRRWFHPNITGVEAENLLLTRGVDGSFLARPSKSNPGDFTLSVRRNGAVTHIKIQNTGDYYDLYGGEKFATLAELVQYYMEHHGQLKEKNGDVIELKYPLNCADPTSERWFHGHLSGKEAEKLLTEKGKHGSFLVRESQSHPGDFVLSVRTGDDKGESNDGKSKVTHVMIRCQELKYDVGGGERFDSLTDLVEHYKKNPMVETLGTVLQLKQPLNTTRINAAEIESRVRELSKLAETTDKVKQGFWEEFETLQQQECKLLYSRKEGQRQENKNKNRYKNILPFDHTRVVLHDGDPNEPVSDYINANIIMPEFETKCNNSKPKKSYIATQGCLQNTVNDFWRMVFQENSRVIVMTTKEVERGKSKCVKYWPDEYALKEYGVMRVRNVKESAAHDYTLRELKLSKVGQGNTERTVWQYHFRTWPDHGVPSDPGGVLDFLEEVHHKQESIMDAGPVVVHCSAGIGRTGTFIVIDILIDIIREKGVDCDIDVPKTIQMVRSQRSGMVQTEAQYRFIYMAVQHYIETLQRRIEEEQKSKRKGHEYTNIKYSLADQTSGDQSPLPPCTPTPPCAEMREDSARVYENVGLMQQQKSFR
Experimental: Briefly, the constructs were transformed into BL21 Star^TM (DE3) cells and cultured at 37 °C for 3~4 h. Subsequently, the cells with high expression of SHP2 protein were harvested after being induced by IPTG and grown overnight at 18 °C. Cell pellets were resuspended in lysis buffer (25 mM imidazole, 50 mM Tris−HCl, 500 mM NaCl, 2.5 mM MgCl2, 1 mM tris(2-carboxyethyl)phosphine (TCEP), 1 μg/mL DNase1, and complete EDTA-free protease inhibitor) and lysed using Low Temperature Ultrahigh Pressure Continuous Flow Cell Disrupter (JNBIO), followed by ultracentrifugation. The supernatant was collected. Then, the SHP2 was purified from the collected supernatant by using HisTrap HP chelation column, TEV protease, and HiTrap Q FastFlow column.
Then, the mixture was then incubated at 25 °C for 60 min. To initiate the reaction, the surrogate substrate DiFMUP (Invitrogen, cat. no. D6567, Shuzhou, China, 200 μM) was added and incubated at 25 °C for another 30 min. […] Fluorescence signal was detected using a microplate reader (Bio-Tek, Shanghai, China, Synergy2) at Ex/Em = 340/450 nm. Using control-based normalization, normalized IC50 regression curves were fitted to inhibitor dose response curves.

[3] = tested on: THR-β; assay: Experimental THR-β activity of agonists taken from Hu et al.; assay type: biochemical; details: Table S4, converted from the experimental value
Description: In the initial phase of our investigation, we conducted a retrospective evaluation of FMOScore’s performance concerning thyroid hormone receptor β (THR-β) agonists, using a set of 18 compounds taken from the work of Hu et al. [65]

[4] = tested on: c-Met; design: method as in earlier work; details: Schrödinger FEP+ benchmark; cited from earlier work
[5] = tested on: c-Met; design: method as in earlier work; details: FEP+ predicted ΔG from the benchmark; cited from earlier work
[6] = tested on: SYK; details: experimental binding free energy, ref Schrödinger FEP+ benchmark; cited from earlier work
[7] = tested on: SYK; design: method as in Schrödinger FEP+ benchmark; details: FEP+ predicted binding free energy, ref Schrödinger FEP+ benchmark; cited from earlier work
[8] = SHP-2_case sheet, designed SHP-2 inhibitors, read-out: IC50uM
[9] = SHP-2_case sheet, same IC50 restated in another unit, read-out: IC50nM
[10] = SHP2^WT, DiFMUP substrate, averages of three independent experiments, read-out: SHP-2 IC50

CNC[C@H]1CC[C@@H]2[C@H](O1)c1cc(C(C)(C)C)ccc1N[C@H]2c1cccs1 [CHEMBL1077227]
Exp. ΔG [1]: -11.32 kcal/mol

Cc1ccc2c(c1)[C@H]1OCCC[C@H]1[C@H](c1ccccc1)N2 [CHEMBL1088740]
Exp. ΔG [1]: -8.7 kcal/mol

Nc1cc(NC2CCNC2)cnc1-c1cccc(Cl)c1Cl (centres unmarked) [A-S3]
IC50 [2, 8]: 5.17 µM
pIC50 ([2]; SHP-2_case sheet): 5.286
IC50 [2, 9]: 5.17 µM
ΔG experiment [2]: -7.208

Nc1cc(N2CCC3(CCCC3N)CC2)cnc1Sc1cccc(Cl)c1Cl (centres unmarked) [A-S8]
IC50 [2, 8]: 2.29 µM
pIC50 ([2]; SHP-2_case sheet): 5.64
IC50 [2, 9]: 2.29 µM
ΔG experiment [2]: -7.69

CC(C)(C)c1ccc2c(c1)[C@H]1OCCC[C@H]1[C@H](c1ccc(O)cc1)N2 [CHEMBL1078691]
Exp. ΔG [1]: -10.19 kcal/mol

CC(C)(C)c1ccc2c(c1)[C@H]1OCCC[C@H]1[C@H](c1ccc(O)c(F)c1)N2 [CHEMBL1078774]
Exp. ΔG [1]: -10.6 kcal/mol

Nc1cc(NC2CCNC2)cnc1-c1cccc(Cl)c1Cl (centres unmarked) [Compound 3, 2-(2,3-dichlorophenyl)-N5-(pyrrolidin-3-yl) pyridine-3,5-diamine]
IC50 [2, 10]: 5.17 ± 1.08 µM
ΔGexp [2]: -7.207 kcal/mol
ΔGexp [3]: -8.435 kcal/mol
Exp. ΔG [4]: -7.46 kcal/mol
FEP [5]: -5.97 kcal/mol
Exp. ΔG [6]: -8.64 kcal/mol
FEP [7]: -6.76 kcal/mol

CN(C)CCOC(=O)NC[C@H]1CC[C@@H]2[C@H](O1)c1cc(C(F)(F)F)ccc1N[C@H]2c1ccccc1 [CHEMBL1084676]
Exp. ΔG [1]: -10.71 kcal/mol

CN(C)CCS(=O)(=O)NC[C@H]1CC[C@@H]2[C@H](O1)c1cc(Cl)cc(F)c1N[C@H]2c1ccccc1 [CHEMBL1096003]
Exp. ΔG [1]: -11.87 kcal/mol

CNCCS(=O)(=O)NC[C@H]1CC[C@@H]2[C@H](O1)c1cc(C(F)(F)F)ccc1N[C@H]2c1ccccc1 [CHEMBL1084677]
Exp. ΔG [1]: -11.46 kcal/mol

CC(=O)NCCNC[C@H]1CC[C@@H]2[C@H](O1)c1cc(Br)cc(F)c1N[C@H]2c1ccccc1 [CHEMBL1082249]
Exp. ΔG [1]: -11.22 kcal/mol

Clc1ccc2c(c1)[C@H]1OCCC[C@H]1[C@H](c1ccccc1)N2 [CHEMBL1089393]
Exp. ΔG [1]: -8.38 kcal/mol

CN(C)CCCC(=O)NC[C@H]1CC[C@@H]2[C@H](O1)c1cc(Br)cc(F)c1N[C@H]2c1ccccc1 [CHEMBL1085692]
Exp. ΔG [1]: -11.32 kcal/mol

CN(C[C@H]1CC[C@@H]2[C@H](O1)c1cc(C(F)(F)F)ccc1N[C@H]2c1ccccc1)S(=O)(=O)CCCN [CHEMBL1084678]
Exp. ΔG [1]: -11.13 kcal/mol

OCCNC[C@H]1CC[C@@H]2[C@H](O1)c1cc(Cl)cc(F)c1N[C@H]2c1ccccc1 [CHEMBL1096002]
Exp. ΔG [1]: -11.13 kcal/mol

CNC[C@H]1CC[C@@H]2[C@H](O1)c1cc(C(F)(F)F)ccc1N[C@H]2c1ccc(O)cc1 [CHEMBL1083517]
Exp. ΔG [1]: -11.46 kcal/mol

CC(C)c1ccc2c(c1)[C@H]1O[C@@H](CNS(=O)(=O)CCCN(C)C)CC[C@H]1[C@H](c1ccccc1)N2 [CHEMBL1084143]
Exp. ΔG [1]: -11.87 kcal/mol

CCN(CCO)C[C@H]1CC[C@@H]2[C@H](O1)c1cc(C(C)(C)C)ccc1N[C@H]2c1ccccc1 [CHEMBL1084935]
Exp. ΔG [1]: -10.53 kcal/mol

Cc1ccc(C(=O)N(CCN)C[C@H]2CC[C@@H]3[C@H](O2)c2cc(C(F)(F)F)ccc2N[C@H]3c2ccccc2)cc1 [CHEMBL1084431]
Exp. ΔG [1]: -9.8 kcal/mol

CC1(N)CCN(c2cnc(-c3cccc(F)c3Cl)c(N)c2)CC1 [Compound 5, 5-(4-amino-4-methylpiperidin-1-yl)-2-(2-chloro-3-fluorophenyl) pyridin-3-amine]
IC50 [2, 10]: 15.1 ± 0.8 µM
ΔGexp [2]: -6.573 kcal/mol
ΔGexp [3]: -5.453 kcal/mol
Exp. ΔG [4]: -9.14 kcal/mol
FEP [5]: -8.31 kcal/mol

CNC[C@H]1CC[C@@H]2[C@H](O1)c1cc(C3CC3)ccc1N[C@H]2c1ccccc1 [CHEMBL1083836]
Exp. ΔG [1]: -10.86 kcal/mol

NCCN(C[C@H]1CC[C@@H]2[C@H](O1)c1cc(C(F)(F)F)ccc1N[C@H]2c1ccccc1)c1ccccc1 [CHEMBL1093087]
Exp. ΔG [1]: -10.53 kcal/mol

Nc1cc(NCC2CCCNC2)cnc1-c1cccc(Cl)c1Cl (centres unmarked) [A-S2]
IC50 [2, 8]: 15.6 µM
pIC50 ([2]; SHP-2_case sheet): 4.8066
IC50 [2, 9]: 15.6 µM
ΔG experiment [2]: -6.554

CC1(N)CCN(c2cnc(-c3cccc(Cl)c3Cl)c(N)c2)CC1 [A-S1]
IC50 [2, 8]: 1.49 µM
pIC50 ([2]; SHP-2_case sheet): 5.826
IC50 [2, 9]: 1.49 µM
ΔG experiment [2]: -7.943

FC(F)(F)c1ccc2c(c1)[C@H]1O[C@@H](Cn3cncn3)CC[C@H]1[C@H](c1ccccc1)N2 [CHEMBL1093088]
Exp. ΔG [1]: -11.22 kcal/mol

CN(C)CCNC(=O)NC[C@H]1CC[C@@H]2[C@H](O1)c1cc(C(F)(F)F)ccc1N[C@H]2c1ccccc1 [CHEMBL1077204]
Exp. ΔG [1]: -11.05 kcal/mol

CC(C)(C)c1ccc2c(c1)[C@H]1OCCC[C@H]1[C@H](c1cccs1)N2 [CHEMBL1078998]
Exp. ΔG [1]: -10.37 kcal/mol

CC1(N)CCN(c2cnc(-c3ccnc(Cl)c3Cl)c(N)c2)CC1 [A-S6]
IC50 [2, 8]: 10.7 µM
pIC50 ([2]; SHP-2_case sheet): 4.973
IC50 [2, 9]: 10.7 µM
ΔG experiment [2]: -6.78

CNC[C@H]1CC[C@@H]2[C@H](O1)c1cc(C(F)(F)F)ccc1N[C@H]2c1ccc(F)cc1 [CHEMBL1086409]
Exp. ΔG [1]: -9.87 kcal/mol

CC1(N)CCN(c2cnc(Sc3cccc(Cl)c3Cl)c(N)c2)CC1 [A-S7]
IC50 [2, 8]: 11.2 µM
pIC50 ([2]; SHP-2_case sheet): 4.949
IC50 [2, 9]: 11.2 µM
ΔG experiment [2]: -6.748

CC(C)(C)c1ccc2c(c1)[C@H]1OCCC[C@H]1[C@H](c1ccsc1)N2 [CHEMBL1084115]
Exp. ΔG [1]: -9.44 kcal/mol

CC1(N)CCN(c2cnc(-c3cccc(F)c3Cl)c(N)c2)CC1 [A-S5]
IC50 [2, 8]: 15.1 µM
pIC50 ([2]; SHP-2_case sheet): 4.821
IC50 [2, 9]: 15.1 µM
ΔG experiment [2]: -6.573

NC[C@H]1CC[C@@H]2[C@H](O1)c1cc(C(F)(F)F)ccc1N[C@H]2c1ccccc1 [CHEMBL1085666]
Exp. ΔG [1]: -10.5 kcal/mol

CNC[C@H]1CC[C@@H]2[C@H](O1)c1cc(Br)cc(F)c1N[C@H]2c1ccccc1 [CHEMBL1082248]
Exp. ΔG [1]: -11.63 kcal/mol

Nc1cc(NC2CCNCC2)cnc1-c1cccc(Cl)c1Cl [A-S4]
IC50 [2, 8]: 23.5 µM
pIC50 ([2]; SHP-2_case sheet): 4.629
IC50 [2, 9]: 23.5 µM
ΔG experiment [2]: -6.312

CC(C)(C)c1ccc2c(c1)[C@H]1OCCC[C@H]1[C@H](c1ccccc1)N2 [CHEMBL1089056]
Exp. ΔG [1]: -9.44 kcal/mol

CNC[C@H]1CC[C@@H]2[C@H](O1)c1cc(C(C)(C)C)ccc1N[C@H]2c1ccccc1 [CHEMBL1086410]
Exp. ΔG [1]: -11.46 kcal/mol
